# PubChem BioAssay (NCI)
#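 Cultured in 96-well plates, cells were exposed to test compound for 48 hours across five concentrations. TGI denotes the concentration required for complete inhibition of growth.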
# Columns and labels:
# Assay in all cases: NCI tumour cell line growth inhibition, 48 h
# [1] = tested on: OVCAR-4 ovarian
# [2] = tested on: SK-MEL-2 melanoma
# [3] = tested on: M14 melanoma
# [4] = tested on: NCI-H23 lung
# [5] = tested on: HCT-116 colon
# [6] = tested on: BT-549 breast
# [7] = tested on: MDA-MB-435
# [8] = tested on: SNB-75 CNS
# [9] = tested on: NCI-H460 lung
# [10] = tested on: OVCAR-5 ovarian
smiles,measurement,setting,value
Brc1cccc(/C=C/CN2CCN(CCOC(c3ccccc3)c3ccccc3)CC2)c1,TGI,[1],25.2 µM
same,TGI,[2],33.6 µM
same,TGI,[3],27.1 µM
same,TGI,[4],36.9 µM
same,TGI,[5],28.9 µM
same,TGI,[6],31.1 µM
same,TGI,[7],25.2 µM
same,TGI,[8],20.2 µM
same,TGI,[9],28.1 µM
same,TGI,[10],34.7 µM
CSc1ccc2c(cc1=O)[C@@H](NC(C)=O)CCc1cc(O)c(O)c(O)c1-2,TGI,[1],35.5 µM
same,TGI,[2],> 100 µM
same,TGI,[3],36 µM
same,TGI,[4],44.9 µM
same,TGI,[5],> 100 µM
same,TGI,[6],56.9 µM
same,TGI,[7],29.9 µM
same,TGI,[8],53 µM
same,TGI,[9],36.2 µM
same,TGI,[10],35.9 µM
CC1=C2C(O)C(C(C)C(=O)NCC(C)C)CCC2(C)C=CC1=O (stereo not drawn),TGI,[1],> 100 µM
same,TGI,[2],> 100 µM
same,TGI,[4],> 100 µM
same,TGI,[5],> 100 µM
same,TGI,[8],> 100 µM
same,TGI,[9],> 100 µM
same,TGI,[10],> 100 µM
C=C[C@@H]1OC(=O)O[C@H]1CO,TGI,[1],> 100 µM
same,TGI,[2],> 100 µM
same,TGI,[3],> 100 µM
same,TGI,[4],> 100 µM
same,TGI,[5],> 100 µM
same,TGI,[7],> 100 µM
same,TGI,[8],> 100 µM
same,TGI,[10],> 100 µM
CC(C(=O)N1C(=O)N(C(=O)C(C)C(O)c2ccccc2)C(c2ccccc2)C1c1ccccc1)C(O)c1ccccc1 (stereo not drawn),TGI,[1],> 100 µM
same,TGI,[2],50.2 µM
same,TGI,[3],33.4 µM
same,TGI,[4],> 100 µM
same,TGI,[5],26.7 µM
same,TGI,[6],38.8 µM
same,TGI,[7],61.2 µM
same,TGI,[8],54.8 µM
same,TGI,[9],19.9 µM
O=c1c(O)c(-c2ccc(O)cc2O)oc2cc(O)cc(O)c12,TGI,[1],> 100 µM
same,TGI,[2],> 100 µM
same,TGI,[3],> 100 µM
same,TGI,[4],> 100 µM
same,TGI,[5],> 100 µM
same,TGI,[7],> 100 µM
same,TGI,[8],> 100 µM
same,TGI,[9],> 100 µM
same,TGI,[10],> 100 µM
c1ccc(N=C2c3ccccc3CN2c2ccccc2)cc1,TGI,[1],> 100 µM
same,TGI,[2],> 100 µM
same,TGI,[3],> 100 µM
same,TGI,[4],> 100 µM
same,TGI,[5],> 100 µM
same,TGI,[6],> 100 µM
same,TGI,[7],> 100 µM
same,TGI,[8],> 100 µM
same,TGI,[9],> 100 µM
CCCCCC(CN1CCOCC1)C(=O)/C=C/c1ccccc1 (stereo not drawn),TGI,[1],8.19 µM
same,TGI,[3],5.44 µM
same,TGI,[4],11.9 µM
same,TGI,[5],3.34 µM
same,TGI,[8],20 µM
same,TGI,[9],11.1 µM
same,TGI,[10],11.1 µM
CN(C1=NCCO1)c1cccc2ccccc12,TGI,[1],> 10 µM
same,TGI,[2],> 10 µM
same,TGI,[3],> 10 µM
same,TGI,[4],> 10 µM
same,TGI,[5],> 10 µM
same,TGI,[7],> 10 µM
same,TGI,[8],> 10 µM
same,TGI,[9],> 10 µM
same,TGI,[10],> 10 µM
O=C1C=CC(=O)c2c1ccc1c3ccccc3n(-c3ccccn3)c21,TGI,[1],29.8 µM
same,TGI,[2],> 100 µM
same,TGI,[3],87.9 µM
same,TGI,[4],> 100 µM
same,TGI,[5],25.9 µM
same,TGI,[8],> 100 µM
same,TGI,[9],> 100 µM
same,TGI,[10],> 100 µM
CCOC(=O)c1c(C)n(Cc2ccccc2)c(=O)c2ccccc2c(=O)c2c(=O)ccc(=O)c1=2,TGI,[1],> 100 µM
same,TGI,[2],> 100 µM
same,TGI,[3],> 100 µM
same,TGI,[4],> 100 µM
same,TGI,[5],46.8 µM
same,TGI,[7],> 100 µM
same,TGI,[8],> 100 µM
same,TGI,[9],> 100 µM
same,TGI,[10],> 100 µM
CCOC(=O)CN1CCNCCN(CC(=O)OCC)CCNCC1,TGI,[1],> 100 µM
same,TGI,[2],> 100 µM
same,TGI,[5],> 100 µM
same,TGI,[6],> 100 µM
same,TGI,[7],> 100 µM
same,TGI,[8],> 100 µM
same,TGI,[9],> 100 µM
same,TGI,[10],> 100 µM
